Data set [1] has as its system patients with acute exacerbations of asthma. Description: In-clinic pulmonary function tests (PEF, FEV1, FVC, FEF25-75%). It is filed as in vivo, human. The procedure: (§1) Patients are centrally randomized (1:1) using computer-generated codes to receive blinded treatment with either oral telithromycin 800 mg once daily (two 400 mg capsules) or placebo (two capsules identical to those containing active treatment) for ten days using a proprietary Interactive Voice Recognition System to balance the treatment assignments within each study center. The first clinic visit (Visit 1), occurring within 24 hours of initial presentation is considered to be the study baseline. At baseline, patients are randomized to telithromycin or placebo. Telephone contact is made at 24-72 hours post-randomization to review concomitant medications taken and adverse events. Visit 2 is at the end of treatment (Days 11-14), Visit 3 is a post-treatment visit (Day 28 [±3 days]), and Visit 4 is the final visit (Day 42 [±3 days]). At each visit, patients undergo respiratory examinations, pulmonary function tests, health outcome assessments, and have a review of adverse events. Vital signs and concomitant medications are also recorded. Spontaneous or induced sputum samples nasopharyngeal swabs, and serum for serology for atypical pathogens are collected at Visits 1 and 3. Patients receiving at least one dose of study treatment and having one primary efficacy endpoint value are included in the intention to treat (ITT) population.
PEF in liter/min, FEV1 in liters, FVC in liters, and FEF25-75% in liters/sec are recorded at clinic visits and are performed according to American Thoracic Society (ATS) standards. [see American Thoracic Society. Standardization of Spirometry. Am. J. Respir. Crit. Care Med. 1995; 152: 1107-1136].
(§2) Efficacy endpoints are analyzed using an analysis of covariance (ANCOVA) model using factors for treatment, study center (investigator), treatment-by-center interaction, and baseline as covariates. Longitudinal analyses are based on the average over the 6-week study period. The treatment group means and the between-group differences are estimated using the ANCOVA model and between-group tests are used to compare telithromycin with placebo. The primary efficacy assessment time point is Visit 2 (end of treatment; Days 11-14).
In the models used, treatment effect is estimated while adjusting for the factor of center and for baseline values as covariates. This adjusted model accounts for the difference in the number of patients enrolled at each center. All mean data for efficacy outcomes are presented as least square (LS) means as they result from this adjusted model.

For data set [2], the system named is C. pneumoniae. The conditions noted are these: mice with acute C. pneumoniae infection; cited from earlier work.
Data set [3] has as its system patients with acute exacerbations of asthma. As to the kind of experiment: Tolerability and safety assessment (adverse-event recording). It counts as in vivo, human. The procedure:
Clinical safety is assessed in all patients by adverse-event recording and standard monitoring. Patients who receive at least one dose of […] and at least one safety assessment during treatment are considered evaluable for safety. All spontaneously reported adverse events and those identified by investigator observation are recorded and evaluated in terms of severity and causality.

The test system is the same in data set [4]. Description: Morning home PEF recorded on diary cards. It counts as in vivo, human. Particulars: patient-recorded; placebo 66.8 L/min. The procedure:
(§3) Asthma symptoms are measured using a modified version of a previously published diary card symptom score in which patients rate the frequency and severity of symptoms on a 7-point Likert scale. [see Santanello N. C., Barber B. L., Reiss T. F, Friedman B. S., Juniper E. F., Zhang J., Measurement Characteristics of Two Asthma Symptom Diary Scales for Use in Clinical Trials. Eur. Respir. J. 1997; 10:646-651]. Daily patient diaries are also used to record asthma symptoms, study treatment dosing, albuterol use, and other concomitant medications. Patient's home PEF values are also recorded in triplicate twice daily.

Data set [5] shares this test system. Description: Asthma diary symptom scores in double-blind, randomized, placebo-controlled study. It is filed as in vivo, human. The procedure:
as §1, §3, §2
Improvements in asthma symptoms assessed by the patients during the ten days of study treatment are analyzed using analysis of variance (ANOVA)/ANCOVA. Time to 50% reduction of asthma symptoms is summarized for treatment groups using a Kaplan-Meier procedure.

In data set [6] the test system is adults following an acute asthma exacerbation. Particulars: oral prednisone, over seven to ten days; cited from earlier work.
In data set [7] the test system is adult patients with acute asthma. Particulars: after seven to ten days of oral prednisone; cited from earlier work.
Data set [8] has as its system children with an acute exacerbation of asthma. Particulars: oral prednisone, after 7 days; pediatric, mean age 8.0 years; cited from earlier work.
In data set [9] the test system is adults with mild asthma exacerbations. The conditions noted are these: after 16 days of tapering oral prednisone; from 73% at onset of treatment; cited from earlier work.
Data set [10] relates to asthmatic patients. Particulars: cited from earlier work.

The structures appear in SMILES notation.

Turning to `CC[C@H]1OC(=O)[C@H](C)C(=O)[C@H](C)[C@@H](O[C@@H]2O[C@H](C)C[C@H](N(C)C)[C@H]2O)[C@](C)(OC)C[C@@H](C)C(=O)[C@H](C)[C@H]2N(CCCCn3cnc(-c4cccnc4)c3)C(=O)O[C@]12C` [telithromycin], in [1] (800 mg/day for ten days, N=126), the “Mean change from baseline to end of treatment, FEF25-75%” value amounted to 0.85 L/s and the “Mean change from baseline to end of treatment, FVC” value amounted to 0.58 L. Besides, in [1] (800 mg/day for ten days, N=126, LS mean, Visit 2), the “Mean change from baseline to end of treatment, FEV1” value worked out at 0.63 L. The “Mean change from baseline to end of treatment, PEF” value in [1] (800 mg/day for ten days, N=126, in-clinic) is given as 115.8 L/min. The “mean improvement in FEV1, subgroup with infection at baseline” value in data set [1] (C. pneumoniae and/or M. pneumoniae infection at baseline, 61 telithromycin patients) came to 0.67 L. For the same compound, in data set [1] (no evidence of C. pneumoniae/M. pneumoniae infection, 44 telithromycin patients), the “mean improvement in FEV1, subgroup without evidence of infection” value was found to be 0.65 L. Also, the “difference between treatments in FEV1 improvement, subgroup with infection at baseline” value in data set [1] (telithromycin vs placebo, 95% CI 0.11, 0.47 L, P=0.002) amounted to 0.29 L. Also, the “difference between treatments in FEV1 improvement, subgroup without evidence of infection” value in data set [1] (telithromycin vs placebo, 95% CI −0.17, 0.52 L, P=0.309) is reported as 0.18 L. The “Difference between treatments in mean change, FEV1” value in data set [1] (telithromycin vs placebo, P=0.001) stood at 0.29 L. Further, the “Difference between treatments in mean change, FEF25-75%” value in [1] (telithromycin vs placebo, P=0.004) came to 0.40 L/s. Further, in data set [1] (telithromycin vs placebo, P=0.006), the “Difference between treatments in mean change, FVC” value came to 0.27 L. In [1] (telithromycin vs placebo, P=0.036), the “Difference between treatments in mean change, PEF” value stood at 26.9 L/min. In addition, the “culture and PCR positivity in the lungs” value in [2] was “reduce culture and PCR positivity”. Moreover, the tolerability entry in data set [3] (800 mg once daily for ten days) was “well tolerated”. Moreover, the “TEAEs considered possibly related to treatment, % of patients” value in data set [3] (132 patients evaluable for safety) is listed as 20.5%. In [3] (132 patients evaluable for safety, placebo 39.7%), the “frequency of TEAEs” value is reported as 38.6%. In data set [3] (placebo 3.8%), the “diarrhea possibly related to treatment” value was 9.8%. Further, the “improvement in morning home PEF from baseline over the treatment period (mean)” value in [4] stood at 78.3 L/min. Further, in data set [5] (Kaplan-Meier, placebo 8 days, P=0.031), the “median time to a 50% reduction in symptoms” value turned out to be 5 days. Moreover, in [5] (entire 6-week observation period, 800 mg once daily for ten days), the “mean change in symptom score from baseline over the study period” value is −51%. Also, in data set [5] (oral 800 mg once daily for ten days, added to usual care, ITT N=126), the “mean percent reduction in symptom severity from baseline to the end of treatment” value is reported as −51%. The “proportion of patients with symptom-free days during the treatment period” value in data set [5] (placebo 8%, P=0.006) is given as 16%. Moreover, the “mean difference between treatments in change in symptom score over the study period” value in data set [5] (telithromycin vs placebo, 6-week period, 95% CI −24.75, −0.89%, P=0.035) was −13%. Besides, in data set [5] (telithromycin vs placebo, 95% CI −36.64, −7.90%, P=0.003), the “mean difference between treatments in percent reduction in symptom severity, baseline to end of treatment” value is on record as −22%.

Turning to `C[C@]12C=CC(=O)C=C1CC[C@@H]1[C@@H]2C(=O)C[C@@]2(C)[C@H]1CC[C@]2(O)C(=O)CO` [prednisone], in [6], the “FEV1 increase, measured after bronchodilator use” value was 0.55 L and the “PEF increase, measured after bronchodilator use” value is 77 L/min. Also, the PEF improvement in data set [7] is given as 46 L/min. Moreover, in data set [8], the “mean increase in FEF25-75%” value was 0.41 L/s, the “mean increase in FEV1” value was 0.37 L, the “mean increase in FVC” value is 0.45 L and the “mean increase in PEF” value is listed as 78 L/min. Besides, the “PEF % predicted after treatment” value in data set [9] is reported as 85%.

Regarding `CC[C@H]1OC(=O)[C@H](C)[C@@H](O[C@H]2C[C@@](C)(OC)[C@@H](O)[C@H](C)O2)[C@H](C)[C@@H](O[C@@H]2O[C@H](C)C[C@H](N(C)C)[C@H]2O)[C@](C)(OC)C[C@@H](C)C(=O)[C@H](C)[C@@H](O)[C@]1(C)O` [clarithromycin], the “severity of bronchial hyperresponsiveness” value in data set [10] is reported as “reduce the severity of bronchial hyperresponsiveness”.

Values taken from patent publication US20080070846A1, “TREATING ACUTE EXACERBATIONS OF ASTHMA USING A KETOLIDE” (Aventis Pharmaceuticals Inc, priority 2004, published 2008).
